Among the test systems are DLD-1 colon; DMS 273 small cell lung; HOP-18 NSCLC; KM20L2 colon; MDA-N; P388 leukemia; P388/ADR leukemia; SN12K1 renal; XF 498 CNS; DMS 114 small cell lung; LXFL 529 NSCLC; RXF-631 renal.
Common to all, as to experiment: NCI tumour cell line growth inhibition, 48 h

Values joined by “and” are separate entries in the source; they are usually repeats but may differ in a detail not shown here. Identical values can stand only once.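 Method: 48-hour compound exposure of cells in 96-well plates, five concentrations, linear interpolation of endpoints. The concentration for 50% growth inhibition is given as GI50. TGI is the concentration that stops growth completely.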

Experimental findings from PubChem BioAssay (NCI) are described below.

Turning to `NC(=S)N/N=C/c1ncccc1O`, the GI50 is 3.79 µM in the assay with DLD-1 colon, 3.74 µM in the assay with KM20L2 colon, 1.9 µM with MDA-N and 4.88 µM with XF 498 CNS. For the same molecule, the TGI was > 774 µM in the assay with DLD-1 colon; 5.96 µM in the assay with DMS 273 small cell lung; 141 µM with HOP-18 NSCLC; 76.5 µM in the assay on KM20L2 colon; > 853 µM in the assay with MDA-N; 1.26 µM in the assay on P388 leukemia. Also, the TGI was > 1000 µM in the assay with P388/ADR leukemia; 13.7 µM with SN12K1 renal; 39.7 µM and 5.52 µM with XF 498 CNS.

For `Nc1nc(Cl)nc2c1ncn2C1CC(O)C(CO)O1` (stereo not drawn), the TGI with DLD-1 colon was > 100 µM; in the assay on DMS 273 small cell lung, 47.1 µM; in the assay on HOP-18 NSCLC, > 100 µM; in the assay on KM20L2 colon, > 100 µM; in the assay with P388 leukemia, 0.498 µM; with P388/ADR leukemia it was > 100 µM. Besides, the TGI in the assay on SN12K1 renal is > 24.9 µM.

`O=C1C=C(Nc2ccc(Cl)cc2C(=O)c2ccccc2)c2ccccc2C1=O`: the TGI in the assay with DLD-1 colon, with DMS 114 small cell lung, with DMS 273 small cell lung, in the assay with HOP-18 NSCLC, in the assay on KM20L2 colon and in the assay on LXFL 529 NSCLC was > 100 µM each time. Moreover, the TGI in the assay with RXF-631 renal and with XF 498 CNS was > 100 µM each time.
